Laboratory results taken from article PMC2823959 (Analytical biochemistry, 2009).

Target: taurine/α-ketoglutarate dioxygenase (TauD) (Escherichia coli, UniProt P37610)
Assay: UV difference absorption titration of apoprotein with global regression analysis
Type: binding

Sequence of taurine/α-ketoglutarate dioxygenase (TauD) (P37610 2-283): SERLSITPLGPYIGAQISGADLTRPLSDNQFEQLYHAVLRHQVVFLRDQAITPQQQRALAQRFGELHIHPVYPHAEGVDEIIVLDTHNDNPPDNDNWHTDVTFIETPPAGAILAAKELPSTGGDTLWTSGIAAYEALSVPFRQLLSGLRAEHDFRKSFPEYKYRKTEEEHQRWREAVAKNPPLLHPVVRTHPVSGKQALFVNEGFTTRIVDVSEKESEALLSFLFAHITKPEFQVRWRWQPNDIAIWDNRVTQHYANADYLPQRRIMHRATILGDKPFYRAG

- Kd: 175 ± 10 µM
Compound: NCCS(=O)(=O)O [taurine]
